Target: T1, ATP-dependent MurE ligase (Mycobacterium tuberculosis, UniProt P9WJL3)
T1 sequence (P9WJL3 1-535): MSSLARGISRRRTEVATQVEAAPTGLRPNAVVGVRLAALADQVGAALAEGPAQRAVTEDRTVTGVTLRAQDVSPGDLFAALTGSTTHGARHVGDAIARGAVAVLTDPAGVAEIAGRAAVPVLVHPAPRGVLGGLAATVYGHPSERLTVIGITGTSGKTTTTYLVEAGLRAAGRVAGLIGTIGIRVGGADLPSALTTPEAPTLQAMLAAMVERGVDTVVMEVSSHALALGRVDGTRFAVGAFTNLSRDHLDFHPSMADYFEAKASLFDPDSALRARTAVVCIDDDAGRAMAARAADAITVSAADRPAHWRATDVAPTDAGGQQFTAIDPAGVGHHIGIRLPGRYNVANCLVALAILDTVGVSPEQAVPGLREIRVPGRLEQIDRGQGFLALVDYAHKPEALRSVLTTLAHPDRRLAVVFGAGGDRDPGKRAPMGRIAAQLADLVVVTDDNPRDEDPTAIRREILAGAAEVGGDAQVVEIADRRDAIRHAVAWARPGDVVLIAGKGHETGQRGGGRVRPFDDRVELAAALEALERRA
Assay: biochemical

C=CC(C)(C)c1c(OC)oc(-c2ccccc2)cc1=O [compound 2, hyperenone A]
IC50: 320 µM

Source: publication PMC3657136, “An antibacterial from Hypericum acmosepalum inhibits ATP-dependent MurE ligase from Mycobacterium tuberculosis” (International Journal of Antimicrobial Agents, 2012)
